Laboratory results from patent publication US10669272B2, “Substituted naphthyridinone compounds useful as T cell activators” (BRISTOL-MYERS SQUIBB COMPANY, priority 2018, dated 2020).
pEC50, pIC50: −log10 of the molar value. Where two headings read alike, the source gives them in different places.

Assays:
human DGKζ = biological target: T1, human DGKζ (Homo sapiens, UniProt Q13574); experiment: DGKζ LIPGLO assay (extruded liposome substrate), in vitro DGK inhibition; assay type: biochemical; conditions: read-out: DGKz LIPGLO IC50
T1 construct: TVMV protease cleavage site (C); Hexa-His (C); made in house; host or cells: Sf9 insect cells (baculovirus, Bac-to-Bac)
T1 sequence (Q13574 with tags, fused parts or gaps isoform Q13574-4): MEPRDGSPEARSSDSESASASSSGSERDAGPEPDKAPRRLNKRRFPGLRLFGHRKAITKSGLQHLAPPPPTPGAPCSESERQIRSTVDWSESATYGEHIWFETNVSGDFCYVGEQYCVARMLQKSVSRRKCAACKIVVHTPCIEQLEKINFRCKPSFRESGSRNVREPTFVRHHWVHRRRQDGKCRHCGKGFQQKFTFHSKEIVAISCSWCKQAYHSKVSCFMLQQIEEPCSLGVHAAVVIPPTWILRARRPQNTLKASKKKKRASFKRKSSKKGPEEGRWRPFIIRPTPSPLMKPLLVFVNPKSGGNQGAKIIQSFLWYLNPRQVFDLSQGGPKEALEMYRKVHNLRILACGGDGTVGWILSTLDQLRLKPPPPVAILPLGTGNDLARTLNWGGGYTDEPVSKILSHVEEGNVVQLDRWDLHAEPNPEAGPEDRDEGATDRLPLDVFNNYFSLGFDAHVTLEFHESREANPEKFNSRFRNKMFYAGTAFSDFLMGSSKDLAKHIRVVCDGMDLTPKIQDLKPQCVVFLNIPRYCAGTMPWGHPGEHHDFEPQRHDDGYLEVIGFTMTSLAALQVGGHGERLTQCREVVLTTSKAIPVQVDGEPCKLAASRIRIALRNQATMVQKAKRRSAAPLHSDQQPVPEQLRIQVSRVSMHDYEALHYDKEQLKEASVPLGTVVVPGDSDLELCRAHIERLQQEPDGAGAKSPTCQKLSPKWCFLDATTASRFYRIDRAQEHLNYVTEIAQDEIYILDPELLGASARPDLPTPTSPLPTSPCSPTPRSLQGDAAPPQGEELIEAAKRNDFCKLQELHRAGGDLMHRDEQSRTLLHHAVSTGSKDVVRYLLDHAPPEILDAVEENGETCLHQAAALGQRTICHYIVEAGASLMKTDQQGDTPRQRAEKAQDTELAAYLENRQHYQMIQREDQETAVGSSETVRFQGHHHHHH

human DGKα = biological target: T2, human DGKα (Homo sapiens, UniProt P23743); experiment: DGKα LIPGLO assay (extruded liposome substrate), in vitro DGK inhibition; assay type: biochemical; conditions: read-out: DGKa LIPGLO IC50
T2 construct: TVMV protease cleavage site (C); Hexa-His (C); made in house; host or cells: Sf9 insect cells (baculovirus, Bac-to-Bac)
T2 sequence (P23743 with tags, fused parts or gaps): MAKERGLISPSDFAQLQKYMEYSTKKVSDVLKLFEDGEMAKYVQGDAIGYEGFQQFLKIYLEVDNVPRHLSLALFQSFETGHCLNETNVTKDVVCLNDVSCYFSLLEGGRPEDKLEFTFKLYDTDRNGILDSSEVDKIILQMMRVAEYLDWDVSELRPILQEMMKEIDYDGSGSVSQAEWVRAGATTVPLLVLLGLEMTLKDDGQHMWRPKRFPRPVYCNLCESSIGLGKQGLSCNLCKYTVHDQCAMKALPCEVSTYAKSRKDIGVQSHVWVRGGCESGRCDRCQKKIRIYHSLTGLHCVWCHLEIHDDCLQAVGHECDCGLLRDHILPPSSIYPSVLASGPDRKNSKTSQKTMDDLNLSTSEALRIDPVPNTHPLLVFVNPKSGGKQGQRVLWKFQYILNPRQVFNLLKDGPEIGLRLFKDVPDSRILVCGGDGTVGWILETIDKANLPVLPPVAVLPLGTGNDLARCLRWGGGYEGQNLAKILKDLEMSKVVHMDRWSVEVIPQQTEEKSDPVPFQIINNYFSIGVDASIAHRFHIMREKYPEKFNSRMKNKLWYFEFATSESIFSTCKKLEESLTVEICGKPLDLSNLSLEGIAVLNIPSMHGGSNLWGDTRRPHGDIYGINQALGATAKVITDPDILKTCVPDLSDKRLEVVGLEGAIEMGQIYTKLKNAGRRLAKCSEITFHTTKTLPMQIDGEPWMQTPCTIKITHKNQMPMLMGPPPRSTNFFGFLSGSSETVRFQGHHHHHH

Human venous whole blood = experiment: Human whole blood IFN-γ assay; assay type: cell-based; conditions: human whole blood, read-out: INFg Whole Blood Normalized Agonist EC50;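 further: blood from healthy donors exposed to compound for 1 h before stimulation with anti-CD3 and anti-CD28 at 1 µg/mL each, IFN-γ quantified in supernatant by AlphaLISA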
Procedure: Human Whole Blood IFN-γ Assay
Human venous whole blood (22.5 μL per well), obtained from healthy donors, was pre-treated with compounds for one hour at 37° C. in a humidified 95% air/5% CO2 incubator. The blood was stimulated with 2.5 μL anti-human CD3 and anti-CD28 mAb at a final concentration of 1 μg/mL each for 24 hours at 37° C. IFN-γ in the supernatants was measured using AlphLISA kit (Cat # AL217).

[1] = Homo sapiens, 24 h, normalized to 3 μM reference compound with anti-CD3 plus anti-CD28 as 100% activation
[2] = Homo sapiens, 24 h, anti-CD3 plus anti-CD28, 24 hours, 3 μM reference compound = 100% activation
[3] = normalized to 3 μM reference compound with anti-CD3 plus anti-CD28 as 100% activation
[4] = anti-CD3 plus anti-CD28, 24 hours, 3 μM reference compound = 100% activation

SMILES | pIC50 (human DGKζ; liposome (LIPGLO) assay) | pIC50 (human DGKα; liposome (LIPGLO) assay) | pEC50 (Human venous whole blood; [1]) | pIC50 (human DGKζ; DGKζ liposome (LIPGLO) assay) | pIC50 (human DGKα; DGKα liposome (LIPGLO) assay) | pEC50 (Human venous whole blood; [2]) | pEC50 (Human venous whole blood; [3]) | pEC50 (Human venous whole blood; [4])
Cc1ccc(C(c2ccc(F)cc2)N2C[C@H](C)N(c3c(F)c(=O)n(C)c4ccc(C#N)nc34)C[C@H]2C)cc1 (stereo partly drawn) [Example 332, 7-fluoro-8-((2S,5R)-4-((4-fluorophenyl)(p-tolyl)methyl)-2,5-dimethylpiperazin-1-yl)-5-methyl-6-oxo-5,6-dihydro-1,5-naphthyridine-2-carbonitrile] | 6.00 | 5.51 | 5.72 | – | – | – | – | –
C[C@@H]1CN(c2cc(=O)n(C)c3ccc(C#N)nc23)[C@@H](C)CN1C(c1ccc(F)cc1)C(F)(F)CO (single isomer, unassigned) [Example 1310] | 5.12 | 5.21 | 5.44 | – | – | – | – | –
CC(c1cccc2ncccc12)N1C[C@H](C)N(c2cc(=O)n(C)c3ccc(C#N)nc23)C[C@H]1C (single isomer, unassigned) [Example 638] | 5.74 | 3.96 | 4.70 | – | – | – | – | –
C[C@@H]1CN(c2cc(=O)n(C)c3ccc(C#N)nc23)[C@@H](C)CN1C(c1ccc(F)cc1)c1nnc(C2CC2)[nH]1 (single isomer, unassigned) [Example 766] | – | – | – | 5.03 | 6.18 | 5.46 | – | –
C[C@@H]1CN(c2cc(=O)n(C)c3ccc(C#N)nc23)[C@@H](C)CN1C(c1ccc(Cl)cc1)c1ccncn1 (single isomer, unassigned) [Example 396] | 5.44 | 5.89 | 6.72 | – | – | – | – | –
CC[C@H]1CN(C(c2ccc(F)cc2)c2cscn2)[C@H](CC)CN1c1cc(=O)n(C)c2ccc(C#N)nc12 (single isomer, unassigned) [Example 1071] | 7.36 | 7.85 | – | – | – | – | 6.72 | –
CC(c1ccc(F)cc1)N1C[C@@H](C)N(c2cc(=O)n(C)c3ccc(C#N)nc23)C[C@@H]1CO (single isomer, unassigned) [Example 1178] | 6.14 | 4.37 | – | – | – | – | 5.51 | –
CCC(c1ccc(OCC2CC2)cc1)N1C[C@H](C)N(c2cc(=O)n(C)c3ccc(C#N)nc23)C[C@H]1C (stereo partly drawn) [Example 1439, 8-((2S,5R)-4-(1-(4-(cyclopropylmethoxy)phenyl)propyl)-2,5-dimethylpiperazin-1-yl)-5-methyl-6-oxo-5,6-dihydro-1,5-naphthyridine-2-carbonitrile] | 6.19 | 6.70 | 6.60 | – | – | – | – | –
C[C@@H]1CN(c2c(C#N)c(=O)n(C)c3ccc(C#N)nc23)CCN1Cc1ccc2ccccc2n1 [Example 992] | – | – | – | 5.49 | 5.89 | 5.24 | – | –
CCOc1cc(F)c(CN2C[C@H](C)N(c3cc(=O)n(C)c4ccc(C#N)nc34)C[C@H]2C)c(F)c1 [Example 1275] | 6.59 | 6.85 | 6.72 | – | – | – | – | –
CC1CN(C(c2ccc(F)cc2)c2nc(C(C)(C)C)no2)C(C)CN1c1c(C#N)c(=O)n(C)c2ccc(C#N)nc12 (single isomer, unassigned) [Example 862] | – | – | – | 6.22 | 6.54 | 5.92 | – | –
CCc1ccccc1C(c1ccc(F)cc1)N1CCN(c2c(C#N)c(=O)n(C)c3ccc(C#N)nc23)C[C@H]1C (stereo partly drawn) [Example 876] | – | – | – | 6.29 | 5.62 | – | – | 5.66
CCC(c1ccc(OC(F)(F)F)cc1F)N1C[C@H](CC)N(c2cc(=O)n(C)c3ccc(C#N)nc23)C[C@H]1C (single isomer, unassigned) [Example 1377] | 6.57 | 7.54 | – | – | – | – | 5.70 | –
C[C@@H]1CN(c2cc(=O)n(C)c3ccc(C#N)nc23)[C@@H](C)CN1C(c1ccc(F)cc1)c1ncco1 (stereo partly drawn) [Example 717] | 5.09 | 6.66 | 5.80 | – | – | – | – | –
C[C@@H]1CN(c2c(C#N)c(=O)n(C)c3ccc(C#N)nc23)CCN1C(c1ccc(F)cc1)c1nc(C2CC2)no1 (single isomer, unassigned) [Example 1030] | 5.96 | 5.66 | – | – | – | – | 6.17 | –
C[C@@H]1CN(c2cc(=O)n(C)c3ccc(C#N)nc23)[C@@H](C)CN1C(c1ccc(OC(F)(F)F)cc1)c1nc(C2CC2)no1 (single isomer, unassigned) [Example 759] | – | – | – | 6.54 | 7.07 | – | – | 6.57
C[C@@H]1CN(c2c(C#N)c(=O)n(C)c3ccc(C#N)nc23)CCN1C(c1ccc(F)cc1)c1cccc2c1OC(F)(F)O2 (single isomer, unassigned) [Example 939] | – | – | – | 5.40 | 4.08 | 5.59 | – | –
C[C@@H]1CN(c2c(C#N)c(=O)n(C)c3ccc(C#N)nc23)CCN1Cc1ccccn1 [Example 990] | – | – | – | 4.60 | 6.13 | 4.70 | – | –
CC(c1ccc(OC(F)F)cn1)N1C[C@H](C)N(c2cc(=O)n(C)c3ccc(C#N)nc23)C[C@H]1C (single isomer, unassigned) [Example 1225] | 5.92 | 6.82 | – | – | – | – | 5.11 | –

SMILES | pIC50 (human DGKζ; liposome (LIPGLO) assay) | pIC50 (human DGKα; liposome (LIPGLO) assay) | pEC50 (Human venous whole blood; [1]) | pIC50 (human DGKζ; DGKζ liposome (LIPGLO) assay) | pIC50 (human DGKα; DGKα liposome (LIPGLO) assay) | pEC50 (Human venous whole blood; [2]) | pEC50 (Human venous whole blood; [3]) | pEC50 (Human venous whole blood; [4])
Cc1cc(C(C)N2C[C@H](C)N(c3cc(=O)n(C)c4ccc(C#N)nc34)C[C@H]2C)ccc1F (stereo partly drawn) [Example 1255] | 5.70 | 5.51 | 5.54 | – | – | – | – | –
C[C@@H]1CN(c2cc(=O)n(C)c3ccc(C#N)nc23)[C@@H](C)CN1Cc1ccc(OC(F)(F)F)c(F)c1 [Example 610] | 4.89 | 6.16 | 5.74 | – | – | – | – | –
CC[C@@H]1CN(c2cc(=O)n(C)c3ccc(C#N)nc23)[C@@H](C)CN1C(C)c1ccc(C2CC2)cc1F (single isomer, unassigned) [Example 1340] | 7.40 | 6.20 | – | – | – | – | 7.10 | –
CC[C@@H]1CN(c2cc(=O)n(C)c3ccc(C#N)nc23)[C@@H](C)CN1C(C)c1ccc(OC)cc1 (single isomer, unassigned) [Example 482] | 6.77 | 6.89 | – | – | – | – | 6.54 | –
COc1ncccc1C(c1ccc(F)cc1)N1CCN(c2c(C#N)c(=O)n(C)c3ccc(C#N)nc23)C[C@H]1C (single isomer, unassigned) [Example 894] | – | – | – | 6.17 | 5.07 | – | – | 5.40
C[C@@H]1CN(c2cc(=O)n(C)c3ccc(C#N)nc23)[C@@H](C)CN1C(c1ccc(F)cc1)c1ccc(N2CCOCC2)cc1 (single isomer, unassigned) [Example 662] | < 3.60 | < 3.60 | 4.70 | – | – | – | – | –
CC[C@@H]1CN(c2cc(=O)n(C)c3ccc(C#N)nc23)[C@@H](C)CN1C(c1ccc(OC(F)(F)F)cc1)c1ccccn1 (single isomer, unassigned) [Example 341] | 6.26 | 7.16 | – | – | – | – | 6.92 | –
CC(c1cccc2c1OC(F)(F)O2)N1C[C@H](C)N(c2cc(=O)n(C)c3ccc(C#N)nc23)C[C@H]1C (single isomer, unassigned) [Example 1216] | 6.82 | 4.08 | – | – | – | – | 5.74 | –
C[C@@H]1CN(c2cc(=O)n(C)c3ccc(C#N)nc23)[C@@H](C)CN1Cc1ccc(C(C)(C)C)cc1 [Example 587] | 5.18 | 5.34 | 5.64 | – | – | – | – | –
CC(c1ccc2c(c1)OCCO2)N1C[C@H](C)N(c2cc(=O)n(C)c3ccc(C#N)nc23)C[C@H]1C (single isomer, unassigned) [Example 1259] | 6.17 | 5.25 | – | – | – | – | 5.31 | –
CC[C@H]1CN(C(c2ccc(F)cc2)c2cccc(C(F)(F)F)n2)[C@H](CC)CN1c1cc(=O)n(C)c2ccc(C#N)nc12 (single isomer, unassigned) [Example 1045] | 6.92 | 6.25 | 6.77 | – | – | – | – | –
C[C@@H]1CN(c2cc(=O)n(C)c3ccc(C#N)nc23)[C@@H](C)CN1Cc1ccc(OC(F)(F)F)cc1Cl [Example 607] | 5.12 | 5.72 | 5.70 | – | – | – | – | –
CC[C@H]1CN(C(c2ccc(F)cc2)c2ccc(F)cc2)[C@H](C)CN1c1cc(=O)n(C)c2ccc(C#N)nc12 [Example 1118] | 6.24 | 6.40 | 6.44 | – | – | – | – | –
C[C@@H]1CN(c2c(C#N)c(=O)n(C)c3ccc(C#N)nc23)CCN1C(c1ccc(F)cc1)c1ccc(C(F)(F)F)cc1 (single isomer, unassigned) [Example 910] | – | – | – | 4.96 | 5.52 | – | – | 4.70
CC(c1ccc(OC(F)(F)F)c(F)c1)N1C[C@H](C)N(c2cc(=O)n(C)c3ccc(C#N)nc23)C[C@H]1C (single isomer, unassigned) [Example 1269] | 6.33 | 6.92 | – | – | – | – | 6.27 | –
C[C@H]1CN(C(c2ccc(F)cc2)c2ccc(F)cc2)[C@H](CN(C)C)CN1c1cc(=O)n(C)c2ccc(C#N)nc12 [Example 1169] | 5.21 | 4.41 | 5.64 | – | – | – | – | –
CC[C@@H]1CN(c2cc(=O)n(C)c3ccc(C#N)nc23)[C@@H](C)CN1C(c1cccc(F)c1)c1ccc(F)cn1 (single isomer, unassigned) [Example 1109] | 6.33 | 6.14 | 6.04 | – | – | – | – | –
Cc1ccc(CN2CCN(c3c(C#N)c(=O)n(C)c4ccc(C#N)nc34)C[C@H]2C)cc1F [Example 1002] | – | – | – | 5.33 | 5.57 | 5.26 | – | –
C[C@@H]1CN(c2cc(=O)n(C)c3ccc(C#N)nc23)[C@@H](C)CN1C(c1ccc(F)cc1)c1nccs1 (single isomer, unassigned) [Example 711] | 5.44 | 7.16 | 5.77 | – | – | – | – | –
